≈ marks a conversion by molar mass, not a printed value. Calls of active or inactive are those of the source. The rule behind the calls is not given here.
Assays:
Staphylococcus aureus [1] = experiment: Antibacterial activity against methicillin-resistant Staphylococcus aureus ATCC 43300 infected in BALB/c mouse assessed as reduction of histopathological changes of pulmonary tissue at 4 mg/kg, iv administered at 1, 6, 25 and 30 hrs post-infection and measured on day 7 post-infection by hematoxylin-eosin staining based analysis; format: functional, organism-based; conditions: time 7.0 day
Staphylococcus aureus [2] = experiment: Inhibition of biofilm formation in methicillin-resistant Staphylococcus aureus ATCC 43300 incubated for 24 hrs under stationary conditions by crystal violet staining based analysis; format: functional, organism-based
Enterococcus faecalis = experiment: Antibacterial activity against Enterococcus faecalis ATCC 29212 assessed as inhibition of bacterial growth incubated for 16 to 18 hrs by broth microdilution method; format: functional; conditions: time 16-18 hrs
Staphylococcus aureus [3] = experiment: Disruption of established biofilm in methicillin-resistant Staphylococcus aureus ATCC 43300 assessed as reduction of relative biofilm mass at 128XMIC incubated for 24 hrs by crystal violet staining based analysis; format: functional
[4] = Half-life in Sprague-Dawley rat at 8 mg/kg, iv by LC-MS analysis; format: ADME, organism-based; conditions: in vivo
Staphylococcus aureus [5] = experiment: Bactericidal activity against Staphylococcus aureus ATCC 25923 assessed as eradication of bacterial colonies at 4XMIC measured after 15 mins by time-kill kinetics analysis; format: functional, organism-based
Staphylococcus aureus [6] = experiment: Disruption of established biofilm in methicillin-resistant Staphylococcus aureus ATCC 43300 assessed as reduction of relative biofilm mass incubated for 24 hrs by crystal violet staining based analysis; format: functional, organism-based; conditions: DDE = dose-dependent effect
[7] = AUC (0 to infinity) in Sprague-Dawley rat at 8 mg/kg, iv by LC-MS analysis; format: ADME, organism-based; design: time infinity, dose 8 mg/kg, route iv; conditions: in vivo
[8] = Selectivity ratio of HC5 for hemolytic activity in rabbit erythrocytes to MIC for antibacterial activity against methicillin-resistant Staphylococcus aureus ATCC 43300; format: toxicity, cell-based
Staphylococcus aureus [9] = experiment: Antibacterial activity against methicillin-resistant Staphylococcus aureus ATCC 43300 assessed as inhibition of bacterial growth measured after 10 passages by broth microdilution method; format: functional, organism-based
Acinetobacter baumannii = experiment: Antibacterial activity against Acinetobacter baumannii ATCC 19606 assessed as inhibition of bacterial growth incubated for 16 to 18 hrs by broth microdilution method; format: functional; conditions: time 16-18 hrs
Staphylococcus aureus [10] = experiment: Antibacterial activity against methicillin-resistant Staphylococcus aureus ATCC 43300 infected in BALB/c mouse assessed as reduction of NF-kappaB p65 expression in lungs at 4 mg/kg, iv administered at 1, 6, 25 and 30 hrs post-infection and measured on day 7 post-infection by western blot analysis; format: functional, organism-based; conditions: time 7.0 day
[11] = Tmax in Sprague-Dawley rat at 8 mg/kg, iv by LC-MS analysis; format: ADME, organism-based; conditions: in vivo
[12] = Subacute toxicity in BALB/c mouse assessed as histopathological changes of liver at 4 to 8 mg/kg, iv administered for 7 days and measured on day 14 by hematoxyin-eosin staining based analysis; format: organism-based; conditions: in vivo, 336 h, dose 4-8 mg/kg, time 14 day
Staphylococcus aureus [13] = experiment: Antibacterial activity against methicillin-resistant Staphylococcus aureus ATCC 43300 infected in BALB/c mouse assessed as reduction in TNF-alpha content in lungs at 4 mg/kg, iv administered at 1, 6, 25 and 30 hrs post-infection and measured on day 7 post-infection by ELISA; format: functional, organism-based; conditions: time 7.0 day
[14] = Acute toxicity in BALB/c mouse assessed as anorexia at >12 mg/kg, iv; format: organism-based; conditions: in vivo
[15] = Subacute toxicity in BALB/c mouse assessed as animals abnormal behaviour at 4 to 8 mg/kg, iv administered everyday for 7 days; format: organism-based; conditions: in vivo, 168 h, dose 4-8 mg/kg, time 7 day
Staphylococcus aureus [16] = experiment: Inhibition of biofilm formation in methicillin-resistant Staphylococcus aureus ATCC 43300 at MIC incubated for 24 hrs under stationary conditions by crystal violet staining based analysis; format: functional
Staphylococcus aureus [17] = experiment: Antibacterial activity against Staphylococcus aureus ATCC 25923 assessed as inhibition of bacterial growth incubated for 16 to 18 hrs by broth microdilution method; format: functional; conditions: time 16-18 hrs
Pseudomonas aeruginosa = experiment: Antibacterial activity against Pseudomonas aeruginosa ATCC 27853 assessed as inhibition of bacterial growth incubated for 16 to 18 hrs by broth microdilution method; format: functional; conditions: time 16-18 hrs
Staphylococcus aureus [18] = experiment: Antibacterial activity against methicillin-resistant Staphylococcus aureus ATCC 43300 infected in BALB/c mouse assessed as reduction in bacterial burden in lungs at 4 mg/kg, iv administered at 1, 6, 25 and 30 hrs post-infection and measured on day 7 post-infection by colony forming unit assay; format: functional, organism-based; conditions: time 7.0 day
[19] = Subacute toxicity in BALB/c mouse assessed as histopathological changes of kidney at 4 to 8 mg/kg, iv administered for 7 days and measured on day 14 by hematoxyin-eosin staining based analysis; format: organism-based; conditions: in vivo, 336 h, dose 4-8 mg/kg, time 14 day
Staphylococcus aureus [20] = experiment: Antibacterial activity against methicillin-resistant Staphylococcus aureus ATCC 43300 infected in BALB/c mouse assessed as increase in IL-10 content in lungs at 4 mg/kg, iv administered at 1, 6, 25 and 30 hrs post-infection and measured on day 7 post-infection by ELISA; format: functional, organism-based; conditions: time 7.0 day
[21] = Cytotoxicity against human HEK293 cells assessed as reduction of cell viability incubated for 48 hrs by MTT assay; format: toxicity, cell-based
Staphylococcus aureus [22] = experiment: Antibacterial activity against methicillin-resistant Staphylococcus aureus ATCC 43300 infected in BALB/c mouse assessed as reduction in MPO content in lungs at 4 mg/kg, iv administered at 1, 6, 25 and 30 hrs post-infection and measured on day 7 post-infection by ELISA; format: functional, organism-based; conditions: time 7.0 day
[23] = Mean clearance rate, Clz in Sprague-Dawley rat at 8 mg/kg, iv by LC-MS analysis; format: ADME, organism-based; conditions: in vivo
[24] = Increase in intracellular ROS level in Escherichia coli ATCC 25922 at 4XMIC measured after 10 mins by DCFH-DA staining based fluorescence analysis relative to control; format: functional
Escherichia coli [25] = experiment: Antibacterial activity against Escherichia coli ATCC 25922 assessed as inhibition of bacterial growth incubated for 16 to 18 hrs by broth microdilution method; format: functional; conditions: time 16-18 hrs
Staphylococcus aureus [26] = experiment: Antibacterial activity against methicillin-resistant Staphylococcus aureus ATCC 43300 infected in BALB/c mouse assessed as increase in animal's survival rate at 4 mg/kg, iv administered at 1, 6, 25 and 30 hrs post-infection and measured for 7 day post-infection; format: functional, organism-based
[27] = Acute toxicity in BALB/c mouse assessed as clonic convulsion at >12 mg/kg, iv; format: organism-based; conditions: in vivo
[28] = MRT (0 to infinity) in Sprague-Dawley rat at 8 mg/kg, iv by LC-MS analysis; format: ADME, organism-based; conditions: in vivo
Escherichia coli [29] = experiment: Antibacterial activity against Escherichia coli ATCC 25922 assessed as inhibition of bacterial growth incubated for 16 to 18 hrs in presence of ROS scavenger, NAC by broth microdilution method; format: functional; conditions: time 16-18 hrs
[30] = Subacute toxicity in BALB/c mouse assessed as histopathological changes of heart at 4 to 8 mg/kg, iv administered for 7 days and measured on day 14 by hematoxyin-eosin staining based analysis; format: organism-based; conditions: in vivo, 336 h, dose 4-8 mg/kg, time 14 day
[31] = Subacute toxicity in BALB/c mouse assessed as histopathological changes of spleen at 4 to 8 mg/kg, iv administered for 7 days and measured on day 14 by hematoxyin-eosin staining based analysis; format: organism-based; conditions: in vivo, 336 h, dose 4-8 mg/kg, time 14 day
Staphylococcus aureus [32] = experiment: Antibacterial activity against methicillin-resistant Staphylococcus aureus ATCC 43300 assessed as inhibition of bacterial growth incubated for 16 to 18 hrs by broth microdilution method; format: functional; conditions: time 16-18 hrs
[33] = Acute toxicity in BALB/c mouse assessed as lethargy at >12 mg/kg, iv; format: organism-based; conditions: in vivo
[34] = Acute toxicity in BALB/c mouse assessed as animal's death at >12 mg/kg, iv; format: organism-based; conditions: in vivo
[35] = Subacute toxicity in BALB/c mouse assessed as animal's death at 4 to 8 mg/kg, iv administered everyday for 7 days; format: organism-based; conditions: in vivo, 168 h, dose 4-8 mg/kg, time 7 day
Staphylococcus aureus [36] = experiment: Antibacterial activity against Staphylococcus aureus ATCC 25923 assessed as inhibition of bacterial growth incubated for 16 to 18 hrs in presence of ROS scavenger, NAC by broth microdilution method; format: functional; conditions: time 16-18 hrs
Staphylococcus aureus [37] = experiment: Disruption of established biofilm in methicillin-resistant Staphylococcus aureus ATCC 43300 assessed as reduction of relative biofilm mass at 64XMIC incubated for 24 hrs by crystal violet staining based analysis; format: functional
Escherichia coli [38] = experiment: Bactericidal activity against Escherichia coli ATCC 25922 assessed as eradication of bacterial colonies at 16XMIC measured after 30 mins time-kill kinetics analysis; format: functional, organism-based
[39] = Cmax in Sprague-Dawley rat at 8 mg/kg, iv by LC-MS analysis; format: ADME, organism-based; design: dose 8 mg/kg, route iv; conditions: in vivo
[40] = Acute toxicity in BALB/c mouse assessed as ruffled fur at >12 mg/kg, iv; format: organism-based; conditions: in vivo
[41] = Subacute toxicity in BALB/c mouse assessed as histopathological changes of lungs at 4 to 8 mg/kg, iv administered for 7 days and measured on day 14 by hematoxyin-eosin staining based analysis; format: organism-based; conditions: in vivo, 336 h, dose 4-8 mg/kg, time 14 day
Erythrocyte = experiment: Hemolytic activity in rabbit erythrocytes incubated for 1 hr; format: toxicity, cell-based, Oryctolagus cuniculus
Klebsiella pneumoniae = experiment: Antibacterial activity against Klebsiella pneumoniae CMCC(B) 46117 assessed as inhibition of bacterial growth incubated for 16 to 18 hrs by broth microdilution method; format: functional; conditions: time 16-18 hrs
[42] = Increase in intracellular ROS level in Staphylococcus aureus ATCC 25923 at 4XMIC measured after 10 mins by DCFH-DA staining based fluorescence analysis relative to control; format: functional

## CN[C@H](CC(C)C)C(=O)N[C@H]1C(=O)N[C@@H](CC(N)=O)C(=O)N[C@H]2C(=O)N[C@H]3C(=O)N[C@H](C(=O)N[C@H](C(=O)O)c4cc(O)cc(O)c4-c4cc3ccc4O)[C@H](O)c3ccc(c(Cl)c3)Oc3cc2cc(c3O[C@@H]2O[C@H](CO)[C@@H](O)[C@H](O)[C@H]2O[C@H]2C[C@](C)(N)[C@H](O)[C@H](C)O2)Oc2ccc(cc2Cl)[C@H]1O [VANCOMYCIN]
Staphylococcus aureus [1]
  Activity: Active
Staphylococcus aureus [2]
  inhibition: Active
Enterococcus faecalis
  MIC: 1 µg/mL (≈ 0.69 µM)
Staphylococcus aureus [3]
  inhibition (INH): 37%

## CCCCCC[n+]1ccn(-c2ccc(C#Cc3ccc(-n4cc[n+](CCCCCC)c4)cc3)cc2)c1.[Br-].[Br-]
[4]
  half-life: 51.4 min
Staphylococcus aureus [5]
  Activity: Active
Staphylococcus aureus [6]
  Activity: Dde
[7]
  AUC(0-inf): 5120 ng·h/mL
[8]
  selectivity ratio: 1600
Staphylococcus aureus [9]
  Activity: Active
Acinetobacter baumannii
  MIC: 32 µg/mL
Staphylococcus aureus [10]
  Activity: Active
[11]
  Tmax: 4.98 min
[12]
  Activity: Non-Toxic
Staphylococcus aureus [13]
  Activity: Active
[14]
  Activity: Non-Toxic
[15]
  Activity: Non-Toxic
Staphylococcus aureus [16]
  inhibition (INH): 100%
Staphylococcus aureus [17]
  MIC: 0.25 µg/mL
Pseudomonas aeruginosa
  MIC: 32 µg/mL
Staphylococcus aureus [18]
  Activity: Active
Staphylococcus aureus [1]
  Activity: Active
[19]
  Activity: Non-Toxic
Staphylococcus aureus [20]
  Activity: Active
[21]
  CC50 at 48 h: 224 µg/mL
Staphylococcus aureus [22]
  Activity: Active
[23]
  clearance: 27.2 mL/min/kg
[24]
  fold change (FC): 20
Escherichia coli [25]
  MIC: 1 µg/mL
Staphylococcus aureus [26]
  Activity: Active
[27]
  Activity: Non-Toxic
[28]
  MRT inf: 32.5 min
Staphylococcus aureus [2]
  inhibition: Active
Enterococcus faecalis
  MIC: 8 µg/mL
Escherichia coli [29]
  MIC: 32 µg/mL
[30]
  Activity: Non-Toxic
[31]
  Activity: Non-Toxic
Staphylococcus aureus [32]
  MIC: 0.5 µg/mL
[33]
  Activity: Non-Toxic
[34]
  Activity: Non-Toxic
[35]
  Activity: Non-Toxic
Staphylococcus aureus [36]
  MIC: 64 µg/mL
Staphylococcus aureus [37]
  inhibition (INH): 69%
Escherichia coli [38]
  Activity: Active
[39]
  Cmax: 12000 ng/mL
[40]
  Activity: Non-Toxic
[41]
  Activity: Non-Toxic
Erythrocyte
  HC5: 800 µg/mL
Klebsiella pneumoniae
  MIC: 32 µg/mL
[42]
  fold change (FC): 2

## CCCCCC[n+]1ccn(CCCCn2cc[n+](CCCCCC)c2)c1.[Br-].[Br-]
[8]
  selectivity ratio: 16
Staphylococcus aureus [17]
  MIC: 125 µg/mL
Escherichia coli [25]
  MIC: 125 µg/mL
Staphylococcus aureus [32]
  MIC: 500 µg/mL
Erythrocyte
  HC5: 8000 µg/mL

## CCCCCCCC[n+]1ccn(CCCCn2cc[n+](CCCCCCCC)c2)c1.[Br-].[Br-]
[8]
  selectivity ratio: 50
Staphylococcus aureus [17]
  MIC: 4 µg/mL
Escherichia coli [25]
  MIC: 32 µg/mL
Staphylococcus aureus [32]
  MIC: 8 µg/mL
Erythrocyte
  HC5: 400 µg/mL
